The subject of data set [1] is MDA-MB-231. Kind of data set: Cytotoxicity against human MDA-MB-231 cells after 24 hrs by MTT assay. The format is functional, cell-based. Conditions: MDA-MB-231, 24 h; call rule not given here.
For data set [2], the system named is Nucleic Acid. Put plainly: Binding affinity to calf thymus DNA assessed as temperature required to cause 50% of DNA denatured at 10 uM by thermal denaturation assay. The format is nucleic-acid assay. To be noted: Bos taurus.
The nature of data set [3]: Cytotoxicity against human MCF10A cells after 24 hrs by MTT assay. Type of data set: cell-based. Conditions: MCF-10A.
The subject of data set [4] is MDA-MB-231. Put plainly: Cytotoxicity against human MDA-MB-231 cells after 48 hrs by MTT assay. Type of data set: functional, cell-based. Conditions: MDA-MB-231, 48 h.
The nature of data set [5]: Cytotoxicity against human MCF10A cells after 48 hrs by MTT assay. The format is cell-based. To be noted: MCF-10A.
For a further data set, the system named is CHO-MG. Kind of data set: Cytotoxicity against MGBG polyamine transporter deficient CHO-MG cells after 48 hrs by MTT assay. Type of data set: ADME, cell-based. To be noted: Cricetulus griseus.
Data set [6] deals with Nucleic Acid. Put plainly: Displacement of ethidium bromide from calf thymus DNA assessed as decrease of fluorescence of bound ethidium bromide by fluorometric assay. The format is nucleic-acid assay. To be noted: Bos taurus.
The test system of data set [7] is MGBG polyamine transporter. Put plainly: Ratio of IC50 for MGBG polyamine transporter deficient CHO-MG cells to IC50 for CHO cells expressing MGBG polyamine transporter. Conditions: chinese hamster; read-out: Ratio IC50. Type of data set: cell-based, Cricetulus griseus.
A further data set relates to CHO. Put plainly: Cytotoxicity against CHO cells expressing MGBG polyamine transporter after 48 hrs by MTT assay. Type of data set: ADME, cell-based. Conditions: Cricetulus griseus.
The subject of the next data set is MCF7. Put plainly: Cytotoxicity against human MCF7 cells after 48 hrs. The format is functional, cell-based. Conditions: MCF7, 48 h.
Data set [8] has as its system MDA-MB-231. Put plainly: Drug uptake in human MDA-MB-231 cells at 10 uM after 6 hrs by fluorescence microscopic analysis. Type of data set: ADME, cell-based. Conditions: mda-mb-231, 6 h.
The subject of data set [9] is MDA-MB-231. Kind of data set: Drug uptake in human MDA-MB-231 cells at 10 uM after 0.5 hrs by fluorescence microscopic analysis. Type of data set: ADME, cell-based. To be noted: mda-mb-231, 0.5 h.

The structures appear in SMILES notation.

As to `COc1cccc2c1C(=O)c1c(O)c3c(c(O)c1C2=O)C[C@@](O)(C(=O)CO)C[C@@H]3O[C@H]1C[C@H](N)[C@H](O)[C@H](C)O1` [DOXORUBICIN], the IC50 with MDA-MB-231 [1] stood at 14.3 µM; in data set [3], 0.75 µM; in the data set with MDA-MB-231 [4], 3.61 µM; in [5], 0.18 µM. The Tm in the data set on Nucleic Acid [2] is 86.4 °C.
As to `Br.O=C1c2cccc3cccc(c23)C(=O)N1CCCNCCCCNCCCNCCCN1C(=O)c2cccc3cccc(c23)C1=O` [BISNAPHTHALIMIDOPROPYL SPERMIDINE TRIHYDROBROMIDE], the IC50 was found to be 12.7 µM in the data set with MDA-MB-231 [1]; 74.6 µM in the data set on CHO-MG; 76.5 µM in the data set on CHO; 4.19 µM in data set [3]; 1.38 µM with MCF7; 4.59 µM in the data set on MDA-MB-231 [4]. In addition, in [5], the IC50 is 3.97 µM. Besides, in the data set on Nucleic Acid [6], the C50 is 1.4 µM. In the data set on Nucleic Acid [2], the midpoint of thermal melting (Tm) was 91.5 °C. In addition, in data set [7], the selectivity ratio was 1. In addition, the Drug uptake entry in the data set on MDA-MB-231 [8] is listed as “Active”.
For the molecule `O=C1c2cccc3cccc(c23)C(=O)N1CCCNCCCCCCCCCCCCNCCCN1C(=O)c2cccc3cccc(c23)C1=O`, the IC50 was 5.11 µM in the data set with MDA-MB-231 [1], 4.17 µM in data set [3], 6.88 µM with MDA-MB-231 [4] and 6.83 µM in [5]. The C50 in the data set with Nucleic Acid [6] is 3.4 µM. Besides, in the data set with Nucleic Acid [2], the Tm worked out at 81.2 °C.
Consider `CN1CCN(c2ccc3[nH]c(-c4ccc5[nH]c(-c6ccc(O)cc6)nc5c4)nc3c2)CC1`, for which, in the data set on Nucleic Acid [2], the Tm stood at 78.8 °C.
Turning to `Br.O=C1c2cccc3cccc(c23)C(=O)N1CCCNCCOCCOCCNCCCN1C(=O)c2cccc3cccc(c23)C1=O`, the IC50 in the data set with MDA-MB-231 [1] came to 12.4 µM; with CHO-MG it was 26.9 µM; with CHO it was 76.1 µM; in data set [3], 6.1 µM; with MDA-MB-231 [4], 6.15 µM; in data set [5], 2.27 µM. Besides, in the data set on Nucleic Acid [6], the C50 worked out at 1.9 µM. The Tm in the data set with Nucleic Acid [2] worked out at 87.9 °C. Moreover, the selectivity ratio in [7] was 0.4. The Drug uptake entry in the data set on MDA-MB-231 [8] is on record as “Active”.
As to `Br.O=C1c2cccc3cccc(c23)C(=O)N1CCCNCCCCCCCCNCCCN1C(=O)c2cccc3cccc(c23)C1=O`, the concentration for half-maximal inhibition (IC50) with MDA-MB-231 [1] is 4.99 µM; with CHO-MG, 5.1 µM; in the data set with CHO, 5.8 µM; in data set [3], 2.77 µM; with MDA-MB-231 [4], 2.68 µM; in [5] it was 0.87 µM. For the same molecule, the C50 in the data set with Nucleic Acid [6] turned out to be 1.7 µM. Also, the Tm with Nucleic Acid [2] amounted to 88.7 °C. Besides, in [7], the selectivity ratio worked out at 0.9. Further, the Drug uptake result with MDA-MB-231 [9] is given as “Active”.
For the molecule `O=C1c2cccc3cccc(c23)C(=O)N1CCCNCCCCCCCCCCNCCCN1C(=O)c2cccc3cccc(c23)C1=O` [BNIPDADEC], the IC50 with MDA-MB-231 [1] was 4.85 µM; in [3], 2.77 µM; in the data set on MDA-MB-231 [4], 3.32 µM; in data set [5], 2.82 µM. Moreover, the C50 in the data set on Nucleic Acid [6] was determined as 1.8 µM. Besides, the Tm in the data set on Nucleic Acid [2] was 84.4 °C.
With `O=C1c2ccccc2C(=O)N1CCCNCCCCCCCCCCNCCCN1C(=O)c2ccccc2C1=O`, the IC50 (with MDA-MB-231 [1]; in data set [3]; in the data set with MDA-MB-231 [4]; in data set [5]) was more than 40 µM in each case. The C50 with Nucleic Acid [6] is more than 10 µM. For the same molecule, the Tm in the data set on Nucleic Acid [2] came to 72 °C.
For `O=C1c2c(O)ccc(O)c2C(=O)c2c(NCCNCCO)ccc(NCCNCCO)c21`, the Tm in the data set on Nucleic Acid [2] was determined as 91 °C.
As to `O=C1c2cccc3cccc(c23)C(=O)N1CCCNCCCCNCCCN1C(=O)c2cccc3cccc(c23)C1=O`, the 50% inhibitory concentration (IC50) came out at 7.86 µM with MDA-MB-231 [1], 8.1 µM in [3], 5.12 µM in the data set with MDA-MB-231 [4] and 5.67 µM in [5]. For the same molecule, the C50 in the data set with Nucleic Acid [6] amounted to 1.5 µM. Further, the Tm in the data set on Nucleic Acid [2] is 89.2 °C.
`CC(/C=N/NC(=N)N)=N\NC(=N)N` [MITOGUAZONE]: the IC50 was more than 100 µM in the data set on CHO-MG and 3.3 µM in the data set on CHO. Also, the selectivity ratio in data set [7] is more than 30.2.
In the case of `O=C1c2cccc3cccc(c23)C(=O)N1CCCNCCCCCCNCCCN1C(=O)c2cccc3cccc(c23)C1=O`, the half-inhibitory concentration (IC50) with MDA-MB-231 [1] was 7.22 µM; in data set [3], 0.84 µM; with MDA-MB-231 [4], 4.54 µM; in [5], 0.83 µM. The C50 in the data set with Nucleic Acid [6] came out at 1.5 µM. Also, the Tm with Nucleic Acid [2] amounted to 91.9 °C.
`O=C1c2cccc3cccc(c23)C(=O)N1CCCNCCCNCCCCNCCCNCCCN1C(=O)c2cccc3cccc(c23)C1=O` returned an IC50 in the data set on MCF7 of 1.38 µM.
Consider `NCCCN1C(=O)c2cccc3cccc(c23)C1=O` [NAPHTHALIMIDOPROPYLAMINE], for which the IC50 (with MDA-MB-231 [1]; in [3]; with MDA-MB-231 [4]; in data set [5]) was more than 40 µM each time. Moreover, the C50 in the data set with Nucleic Acid [6] was more than 10 µM. The melting temperature (Tm) with Nucleic Acid [2] turned out to be 66.3 °C.
As for `O=C1c2cccc3cccc(c23)C(=O)N1CCCNC1CCCC(CC2CCCC(NCCCN3C(=O)c4cccc5cccc(c45)C3=O)C2)C1` (configuration not stated), the IC50 with MDA-MB-231 [1] came out at 6.84 µM; with CHO-MG it was 6.3 µM; in the data set with CHO, 6.2 µM; in data set [3], 6.06 µM; in the data set on MDA-MB-231 [4], 6.06 µM; in data set [5], 5.71 µM. The C50 in the data set with Nucleic Acid [6] is 3.8 µM. Further, in the data set with Nucleic Acid [2], the Tm worked out at 87.4 °C. Further, in [7], the selectivity ratio stood at 1.
